Results on one compound are retold here after patent US20070292912A1, “Diffusion-controlling sensor layer” (priority 1999, published 2007).

Each structure is given as a SMILES string.

For assay [1], the system named is Escherichia coli strain SM101 (pEBZ181) recA-lux SOS reporter gene cells. The experiment in a line: Microtitre plate assay with SOS reporter gene system (recA-lux bioluminescence stimulated by ciprofloxacin). The class given is cell-based. The conditions noted are these: for Rel. bioluminescence: microtitre plate, 28° C., 60 min, relative to CTAB-free reference. An excerpt: (§1) The reporter gene cell consists of the Escherichia coli strain SM101 which harbours the recombinant plasmid pEBZ181. This plasmid encodes a fusion between the recA promoter from E. coli and the structural genes of the bacterial luminescence of Vibrio fischeri (lux genes C, D, A, B, E and G). To construct the plasmid, the recA promoter-harbouring Bam H I fragment from the plasmid pUA80 [Barbe J, Fernandez de Henestrosa A R, Calero S, and Gilbert I (1991) Chromogenic Method for rapid isolation of recA-like mutants of Gram-negative bacteria. J. Bacteriol. 173: 404-406] was cloned into a derivative of the vector pEBZ112 [Peitzsch N, Eberz G, and Nies D (1998) Alcaligenes eutrophus as a bacterial chromate sensor. Appl. Environm. Microbiol. 64: 453-458] which harbours, inserted into the Nco I site of the luxG gene, a lacZ cassette [Becker A (1993) Analyse der Succinoglycan-Biosyntheseregion von Rhizobium meliloti 2011: Untersuchungen zur Identifizierung des bakteriellen Infektionssignals in der Symbiose mit Luzeme, doctoral thesis, Bielefeld University, Germany]. Plasmid pEBZ181 was transformed by standard methods [Sambrook J, Fritsch E F, and Maniatis T (1989) Molecular cloning: A laboratory manual (2nd edn), Cold Spring Harbor Laboratory Press] into the Escherichia coli strain SMIOI (obtained from E. coli Genetic Stock Center, Yale University, New Haven, USA) and employed for bioimaging experiments.
(§2) Treatment of bacteria with antibacterial agents such as 4-quinolonecarboxylic acids leads to induction of the so-called SOS repair mechanism [Walker C G (1984) Mutagenesis and inducible responses to deoxyribonucleic acid damage in Escherichia coli. Microbiol. Rev. 48: 60-93; Phillips I, Culabras E, Moreno F, and Baquero F (1987) Induction of the SOS response by new 4-quinolones. J. Antimicrob. Chemother. 20: 631-638; Piddock L J V, and Wise R (1987) Induction of the SOS response in Escherichia coli by 4-quinone antimicrobial agents. FEMS Microbiol. Lett. 41: 289-294]. The RecA protein is a main regulator of this repair mechanism, and SOS induction leads to enhanced expression of the recA gene. Measurement of the synthesis of the RecA protein [Little J W and Mount D W (1982) The SOS regulatory system of Escherichia coli. Cell 29: 11-22; Witkin E M (1976) Ultraviolet mutagenesis and inducible DNA repair in Escherichia coli. Bacteriol. Rev. 40: 864-907] or of recA-reporter gene fusions [Nunoshiba T and Nishioka H (1991) Rec-lac test for detecting SOS-inducing activity of environmental genotoxic substances. Mutation Res. 254:71-77] is one possible way of measuring SOS induction and consequently the effect of 4-quinolonecarboxylic acids. Since the strain E. coli SM101 (pEBZ181) harbours a plasmid with a recA-lux reporter gene fusion, it is suitable for detecting 4-quinolonecarboxylic acids or other SOS-inducing compounds. The presence of such compounds leads to enhanced expression of the luciferase gene and thus to a stimulation of bioluminescence.
In both assay formats ciprofloxacin was used for effect-specific induction of the SOS response. The bioluminescence stimulated in the reporter gene system used in this case provided the read-out signal which was recorded by video imaging. In order to test the tolerance of the two bioassay formats to interfering substances, assays were carried out in the presence of cytotoxic cetyltrimethylammonium bromide (CTAB).
Five assay solutions were made up in a 96-well microtitre plate (Dynatech Microlite). A volume of 200 μl contained in each case:
16 μl of reporter gene cell suspension (OD: 1.2 at 660 nm) in 2% LB medium
90 μl of solution of substances 1.-5. in water
1. 25 ng of ciprofloxacin hydrochloride monohydrate
2. 25 ng of ciprofloxacin hydrochloride monohydrate+50 ng of CTAB
3. 25 ng of ciprofloxacin hydrochloride monohydrate+100 ng of CTAB
4. 25 ng of ciprofloxacin hydrochloride monohydrate+200 ng of CTAB
5. 25 ng of ciprofloxacin hydrochloride monohydrate+500 ng of CTAB […]

For assay [2] the test system is unchanged. The experiment in a line: Activity measurement with the diffusion-controlling sensor layer (SOS reporter gene cells in agarose on TLC plate). In kind it is cell-based. The following applies: for Rel. bioluminescence: sensor layer 2 mm, 28° C., 60 min.
Text: as §1
as §2, with “Mutation Res. 254:71-77] is one possible way of measuring SOS induction and consequently the effect of 4-quinolonecarboxylic acids. Since the strain E. coli SM101 (pEBZ181) harbours a plasmid with a recA-lux reporter gene fusion, it is suitable for detecting 4-quinolonecarboxylic acids or other SOS-inducing compounds. The presence of such compounds leads to enhanced expression of the luciferase gene and thus to a stimulation of bioluminescence.” left out
In both assay formats ciprofloxacin was used for effect-specific induction of the SOS response. The bioluminescence stimulated in the reporter gene system used in this case provided the read-out signal which was recorded by video imaging. […]

For `CCCCCCCCCCCCCCCC[N+](C)(C)C.[Br-]` [CTAB, cetyltrimethylammonium bromide], the Rel. bioluminescence in assay [1] (CTAB 50 ng/200 μl with 25 ng ciprofloxacin hydrochloride monohydrate) is 0.88; in assay [1] (CTAB 100 ng/200 μl with 25 ng ciprofloxacin hydrochloride monohydrate) it was 0.87; in assay [1] (CTAB 200 ng/200 μl with 25 ng ciprofloxacin hydrochloride monohydrate), 0.78; in assay [1] (CTAB 500 ng/200 μl with 25 ng ciprofloxacin hydrochloride monohydrate), 0.44; in assay [2] (CTAB 250 ng/200 μl (calculated analogous concentration) with 10 ng ciprofloxacin hydrochloride monohydrate), 1.002; in assay [2] (CTAB 500 ng/200 μl (calculated analogous concentration) with 10 ng ciprofloxacin hydrochloride monohydrate) it was 1.023. Besides, in assay [1] (microtitre plate format, CTAB concentrations up to 500 ng/200 μl, ciprofloxacin-stimulated), the reduction in bioluminescence result is listed as “more than 50%”. Also, the “fall in the bioluminescence (of the initial value)” value in assay [1] (microtitre plate format, addition of CTAB, ciprofloxacin-stimulated) is on record as “about 40%”. In assay [2] (sensor layer format, ciprofloxacin-stimulated bioluminescence), the “bioactivity measurement on addition of CTAB” value was “not impaired”. Besides, the “relative bioluminescence as a measure of the selective stimulation by ciprofloxacin” value in assay [2] (sensor layer format, up to CTAB concentrations of 500 ng/200 μl) is “remained constant”.
